# Experimental data: ChEMBL document CHEMBL3813655 (ACS Med Chem Lett, 2016)
# Activity calls are given as the source filed them. The rule behind the calls is not given here.
# Key:
# [1] = molecular target: Receptor-type tyrosine-protein kinase FLT3 (Homo sapiens, UniProt P36888, D835Y)
# [2] = molecular target: Receptor-type tyrosine-protein kinase FLT3 (Homo sapiens, UniProt P36888, ITD)
# Serum = test: Protein binding in 10% human serum at 100 uM after 3 days; format: ADME; conditions: 72 h
# MOLM-13 = test: Antiproliferative activity against pMMP-LucNeo fused human MOLM13 cells assessed as cell viability after 3 days by cell titer glo assay; format: functional, cell-based
# MOLM-14 = test: Antiproliferative activity against human MOLM14 cells assessed as cell viability after 3 days by cell titer glo assay; format: functional, cell-based
# HEL = test: Antiproliferative activity against human HEL cells assessed as cell viability by cell titer glo assay; format: functional, cell-based
# NOMO-1 = test: Antiproliferative activity against human NOMO1 cells assessed as cell viability by cell titer glo assay; format: functional, cell-based
# Homo sapiens = species: Homo sapiens; test: Antiproliferative activity against human P31 cells assessed as cell viability by cell titer glo assay; format: functional, cell-based
# K562 = test: Antiproliferative activity against human K562 cells assessed as cell viability by cell titer glo assay; format: functional, cell-based
# PF-382 = test: Antiproliferative activity against human PF382 cells assessed as cell viability by cell titer glo assay; format: functional, cell-based
# U-937 = test: Antiproliferative activity against human U937 cells assessed as cell viability by cell titer glo assay; format: functional, cell-based
# K052 = test: Antiproliferative activity against human K052 cells assessed as cell viability by cell titer glo assay; format: functional, cell-based
# NALM-6 = test: Antiproliferative activity against human NALM6 cells assessed as cell viability by cell titer glo assay; format: functional, cell-based
# NB-4 = test: Antiproliferative activity against pMMP-LucNeo fused human NB4 cells assessed as cell viability by cell titer glo assay; format: functional, cell-based
# THP-1 = test: Antiproliferative activity against human THP1 cells assessed as cell viability by cell titer glo assay; format: functional, cell-based
# [3] = Cell cycle arrest in […]-ITD mutant expressing mouse BA/F3 cells assessed accumulation at G1 phase up to 100 nM after 48 hrs by propidium iodide staining based FACS analysis; format: functional; conditions: BaF3
# BaF3 [4] = test: Induction of apoptosis in […]-ITD mutant expressing mouse BA/F3 cells up to 1000 nM after 48 hrs by Annexin V-fluos assay; format: functional, cell-based
# [5] = Cell cycle arrest in […]-D835Y mutant expressing mouse BA/F3 cells assessed accumulation at G1 phase up to 100 nM after 48 hrs by propidium iodide staining based FACS analysis; format: functional; conditions: BaF3
# BaF3 [6] = test: Induction of apoptosis in […]-D835Y mutant expressing mouse BA/F3 cells up to 1000 nM after 48 hrs by Annexin V-fluos assay; format: functional, cell-based
# [7] = Antiproliferative activity against human patient-derived FLT3 D835Y mutant expressing AML cells primagrafted in mouse spleen after 3 days; format: functional, cell-based; conditions: 72 h
# [8] = Antiproliferative activity against human patient-derived FLT3 ITD mutant expressing AML cells primagrafted in mouse spleen after 3 days; format: functional, cell-based; conditions: 72 h
# [9] = molecular target: Phosphorylase b kinase gamma catalytic chain, skeletal muscle/heart isoform (Homo sapiens, UniProt Q16816); test: Inhibition of PHKGI (unknown origin) by kinomescan analysis
# [10] = molecular target: Dual specificity protein kinase CLK4 (Homo sapiens, UniProt Q9HAZ1); test: Inhibition of CLK4 (unknown origin) by kinomescan analysis
# [11] = molecular target: Rho-associated protein kinase 2 (Homo sapiens, UniProt O75116); test: Inhibition of ROCK2 (unknown origin) by kinomescan analysis
# [12] = molecular target: Dual specificity protein kinase CLK1 (Homo sapiens) (UniProt P49759); test: Inhibition of CLK1 (unknown origin) at 1 uM by kinomescan analysis
# [13] = Half life in mouse microsomes; format: ADME, Microsome
# Plasma = test: Stability in mouse plasma after 6 hrs; format: ADME, cell-free
# [14] = molecular target: Receptor-type tyrosine-protein kinase FLT3 (Homo sapiens) (UniProt P36888); conditions: 1 uM
# Description: Inhibition of wild type FLT3 (unknown origin) at 1 uM by kinomescan analysis
# [15] = tested on: Receptor-type tyrosine-protein kinase FLT3 (Homo sapiens), P36888 [UNDEFINED MUTATION]; conditions: 1 uM
# [16] = tested on: Receptor-type tyrosine-protein kinase FLT3 (Homo sapiens), P36888 [N841I]; conditions: 1 uM
# Description: Inhibition of FLT3 N841I mutant (unknown origin) at 1 uM by kinomescan analysis
# [17] = tested on: Receptor-type tyrosine-protein kinase FLT3 (Homo sapiens), P36888 [D835V]; conditions: 1 uM
# Description: Inhibition of FLT3 D835V mutant (unknown origin) at 1 uM by kinomescan analysis
# [18] = tested on: Receptor-type tyrosine-protein kinase FLT3 (Homo sapiens), P36888 [UNDEFINED MUTATION]; conditions: 1 uM; remark: listed apart in the source
# [19] = tested on: Receptor-type tyrosine-protein kinase FLT3 (Homo sapiens), P36888 [UNDEFINED MUTATION]; conditions: 1 uM; remark: listed apart in the source
# [20] = tested on: Receptor-type tyrosine-protein kinase FLT3 (Homo sapiens), P36888 [R834Q]; conditions: 1 uM
# Description: Inhibition of FLT3 R834Q double mutant (unknown origin) at 1 uM by kinomescan analysis
# Sequence of Dual specificity protein kinase CLK1 (Homo sapiens) (P49759 whole entry, looked up): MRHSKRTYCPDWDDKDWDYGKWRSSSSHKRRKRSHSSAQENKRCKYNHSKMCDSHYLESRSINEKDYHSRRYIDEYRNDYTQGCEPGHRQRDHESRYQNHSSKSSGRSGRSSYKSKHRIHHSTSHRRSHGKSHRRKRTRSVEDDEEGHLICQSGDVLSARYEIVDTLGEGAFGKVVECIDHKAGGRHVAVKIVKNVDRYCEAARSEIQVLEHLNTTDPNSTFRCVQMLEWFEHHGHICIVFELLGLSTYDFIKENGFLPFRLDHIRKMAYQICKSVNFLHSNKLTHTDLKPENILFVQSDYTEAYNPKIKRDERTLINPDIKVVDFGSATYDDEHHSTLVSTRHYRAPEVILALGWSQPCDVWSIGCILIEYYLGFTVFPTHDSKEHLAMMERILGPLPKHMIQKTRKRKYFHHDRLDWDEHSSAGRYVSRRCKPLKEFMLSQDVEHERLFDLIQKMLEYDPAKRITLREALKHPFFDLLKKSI
# Sequence of Dual specificity protein kinase CLK4 (Q9HAZ1 whole entry): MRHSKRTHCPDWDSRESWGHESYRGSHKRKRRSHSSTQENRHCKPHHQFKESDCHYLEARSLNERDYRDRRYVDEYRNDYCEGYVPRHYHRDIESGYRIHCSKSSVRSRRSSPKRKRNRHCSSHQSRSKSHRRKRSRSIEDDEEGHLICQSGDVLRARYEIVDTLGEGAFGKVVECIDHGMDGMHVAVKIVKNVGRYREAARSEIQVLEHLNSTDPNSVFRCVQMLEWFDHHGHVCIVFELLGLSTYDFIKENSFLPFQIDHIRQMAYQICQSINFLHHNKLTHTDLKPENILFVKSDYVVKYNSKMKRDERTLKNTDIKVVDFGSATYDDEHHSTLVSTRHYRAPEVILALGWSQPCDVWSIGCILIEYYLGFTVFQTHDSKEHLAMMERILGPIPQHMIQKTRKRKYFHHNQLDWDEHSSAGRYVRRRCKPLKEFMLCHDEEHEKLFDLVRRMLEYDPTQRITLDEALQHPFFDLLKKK
# Sequence of Phosphorylase b kinase gamma catalytic chain, skeletal muscle/heart isoform (Q16816 whole entry, canonical isoform): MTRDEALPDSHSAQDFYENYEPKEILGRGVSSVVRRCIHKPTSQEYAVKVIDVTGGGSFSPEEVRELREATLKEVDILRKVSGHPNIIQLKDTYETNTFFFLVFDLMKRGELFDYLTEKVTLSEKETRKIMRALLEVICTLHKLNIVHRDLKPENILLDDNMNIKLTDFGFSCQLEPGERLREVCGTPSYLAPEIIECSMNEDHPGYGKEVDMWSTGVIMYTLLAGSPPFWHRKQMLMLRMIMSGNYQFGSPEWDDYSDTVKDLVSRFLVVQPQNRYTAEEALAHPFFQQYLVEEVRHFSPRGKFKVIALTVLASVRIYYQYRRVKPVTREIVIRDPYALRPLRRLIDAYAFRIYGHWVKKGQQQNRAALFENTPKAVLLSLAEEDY
# Sequence of Rho-associated protein kinase 2 (O75116 whole entry): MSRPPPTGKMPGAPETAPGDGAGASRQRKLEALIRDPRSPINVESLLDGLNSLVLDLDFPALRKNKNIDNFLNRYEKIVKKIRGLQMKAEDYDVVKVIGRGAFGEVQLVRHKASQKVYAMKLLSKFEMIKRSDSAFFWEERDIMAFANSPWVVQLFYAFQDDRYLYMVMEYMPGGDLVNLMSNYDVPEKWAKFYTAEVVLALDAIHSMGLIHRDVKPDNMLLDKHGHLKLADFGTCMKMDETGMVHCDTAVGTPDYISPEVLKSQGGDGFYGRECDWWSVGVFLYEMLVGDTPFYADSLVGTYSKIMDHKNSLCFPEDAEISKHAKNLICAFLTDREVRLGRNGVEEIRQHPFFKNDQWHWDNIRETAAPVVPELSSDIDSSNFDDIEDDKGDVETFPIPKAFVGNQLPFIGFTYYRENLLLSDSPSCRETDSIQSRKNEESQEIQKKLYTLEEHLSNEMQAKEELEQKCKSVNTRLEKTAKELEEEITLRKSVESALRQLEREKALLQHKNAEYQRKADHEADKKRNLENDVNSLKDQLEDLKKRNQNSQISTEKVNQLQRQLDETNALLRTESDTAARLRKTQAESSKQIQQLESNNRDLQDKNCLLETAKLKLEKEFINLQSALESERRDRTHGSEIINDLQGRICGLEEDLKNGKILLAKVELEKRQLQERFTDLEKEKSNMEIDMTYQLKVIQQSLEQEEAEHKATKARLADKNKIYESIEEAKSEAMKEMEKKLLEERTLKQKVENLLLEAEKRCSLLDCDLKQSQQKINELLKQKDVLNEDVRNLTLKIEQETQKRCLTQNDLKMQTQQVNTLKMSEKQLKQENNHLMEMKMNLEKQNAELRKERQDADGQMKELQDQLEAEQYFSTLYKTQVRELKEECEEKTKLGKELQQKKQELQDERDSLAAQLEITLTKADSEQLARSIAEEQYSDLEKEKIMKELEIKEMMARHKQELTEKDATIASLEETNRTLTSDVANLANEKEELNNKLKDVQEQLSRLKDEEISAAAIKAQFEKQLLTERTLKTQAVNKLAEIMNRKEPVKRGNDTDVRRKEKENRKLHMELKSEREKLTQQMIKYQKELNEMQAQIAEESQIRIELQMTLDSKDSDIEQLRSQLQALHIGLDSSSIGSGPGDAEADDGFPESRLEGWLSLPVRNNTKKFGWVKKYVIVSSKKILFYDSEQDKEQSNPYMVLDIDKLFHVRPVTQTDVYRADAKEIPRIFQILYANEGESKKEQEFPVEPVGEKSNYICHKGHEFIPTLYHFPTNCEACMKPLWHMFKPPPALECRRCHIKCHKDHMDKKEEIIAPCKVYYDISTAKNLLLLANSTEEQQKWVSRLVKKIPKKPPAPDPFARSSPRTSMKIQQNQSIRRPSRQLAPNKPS
structure (smiles),measurement,setting,value
CN(C)CCCn1cc(-c2ccc3c(c2)-c2[nH]c4cc(-c5cn[nH]c5)ccc4c2C3=O)cn1,IC50,[1],4 nM
same,IC50,[2],10 nM
same,PB,Serum,Active
same,Activity,MOLM-13,Active
same,Activity,MOLM-14,Active
same,Activity,HEL,inactive
same,Activity,NOMO-1,inactive
same,Activity,Homo sapiens,inactive
same,Activity,K562,inactive
same,Activity,PF-382,inactive
same,Activity,U-937,inactive
same,Activity,K052,inactive
same,Activity,NALM-6,inactive
same,Activity,NB-4,inactive
same,Activity,THP-1,inactive
same,Activity,[3],Active
same,Activity,BaF3 [4],Active
same,Activity,[5],inactive
same,Activity,BaF3 [6],Active
same,IC50,[7],70 nM
same,IC50,[8],70 nM
same,IC50,[9],78 nM
same,IC50,[10],142 nM
same,IC50,[11],936 nM
same,inhibition,[12],Active
same,half-life,[13],15 min
same,Stability,Plasma,Stable
same,inhibition,[14],> 95%
same,inhibition,[15],> 95%
same,inhibition,[16],> 95%
same,inhibition,[17],> 95%
same,inhibition,[18],> 95%
same,inhibition,[19],> 95%
same,inhibition,[20],> 95%
